Data taken from ChEMBL document CHEMBL3526101, “Discovery and characterization of novel, potent, and selective cytochrome P450 2J2 inhibitors” (Drug Metab Dispos, 2013).

Columns and labels:
[1] = molecular target: T1, Cytochrome P450 2J2 (Homo sapiens, UniProt P51589)
T1 sequence (P51589 whole entry): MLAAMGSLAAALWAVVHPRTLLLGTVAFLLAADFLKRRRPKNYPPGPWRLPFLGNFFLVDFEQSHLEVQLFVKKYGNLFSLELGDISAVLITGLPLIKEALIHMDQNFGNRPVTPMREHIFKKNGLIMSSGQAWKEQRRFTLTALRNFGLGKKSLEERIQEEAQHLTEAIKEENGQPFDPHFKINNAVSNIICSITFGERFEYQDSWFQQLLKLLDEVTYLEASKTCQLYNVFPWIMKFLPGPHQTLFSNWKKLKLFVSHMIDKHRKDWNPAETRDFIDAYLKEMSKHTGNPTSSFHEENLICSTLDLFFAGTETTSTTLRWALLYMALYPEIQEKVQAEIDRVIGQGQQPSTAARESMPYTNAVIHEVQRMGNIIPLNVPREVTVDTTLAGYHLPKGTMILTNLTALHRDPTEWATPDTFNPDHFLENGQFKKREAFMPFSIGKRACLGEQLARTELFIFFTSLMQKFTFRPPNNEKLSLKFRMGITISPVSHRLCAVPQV

[2] = molecular target: Cytochrome P450 2C9 (Homo sapiens, UniProt P11712)
Sequence of Cytochrome P450 2C9 (P11712 whole entry): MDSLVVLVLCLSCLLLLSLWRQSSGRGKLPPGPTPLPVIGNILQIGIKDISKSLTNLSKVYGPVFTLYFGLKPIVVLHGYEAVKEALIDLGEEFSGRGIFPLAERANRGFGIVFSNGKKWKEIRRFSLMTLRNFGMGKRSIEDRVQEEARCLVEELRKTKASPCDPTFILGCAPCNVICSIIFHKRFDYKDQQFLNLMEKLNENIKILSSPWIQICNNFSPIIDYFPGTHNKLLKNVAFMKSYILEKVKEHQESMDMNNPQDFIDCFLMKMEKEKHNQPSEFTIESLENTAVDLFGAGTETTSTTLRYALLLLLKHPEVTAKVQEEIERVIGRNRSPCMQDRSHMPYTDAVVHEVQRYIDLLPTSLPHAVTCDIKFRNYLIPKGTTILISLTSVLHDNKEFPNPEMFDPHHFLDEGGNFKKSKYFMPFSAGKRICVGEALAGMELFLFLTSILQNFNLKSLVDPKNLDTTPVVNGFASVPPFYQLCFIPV

[3] = molecular target: Cytochrome P450 2D6 (Homo sapiens, UniProt P10635)
Sequence of Cytochrome P450 2D6 (P10635 whole entry): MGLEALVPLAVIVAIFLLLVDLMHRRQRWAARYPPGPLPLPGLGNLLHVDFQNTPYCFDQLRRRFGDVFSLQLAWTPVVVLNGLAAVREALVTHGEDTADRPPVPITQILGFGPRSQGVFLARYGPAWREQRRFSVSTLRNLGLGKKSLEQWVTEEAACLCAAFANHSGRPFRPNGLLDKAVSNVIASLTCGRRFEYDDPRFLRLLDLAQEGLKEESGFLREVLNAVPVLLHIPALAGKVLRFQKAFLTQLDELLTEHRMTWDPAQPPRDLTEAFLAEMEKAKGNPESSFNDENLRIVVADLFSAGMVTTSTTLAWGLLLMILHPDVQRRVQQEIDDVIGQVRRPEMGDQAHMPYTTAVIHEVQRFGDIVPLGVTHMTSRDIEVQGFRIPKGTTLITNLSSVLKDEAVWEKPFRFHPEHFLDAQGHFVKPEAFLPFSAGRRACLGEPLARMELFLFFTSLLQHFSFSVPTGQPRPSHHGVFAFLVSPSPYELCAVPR

[4] = molecular target: Cytochrome P450 2C19 (Homo sapiens, UniProt P33261)
Sequence of Cytochrome P450 2C19 (P33261 whole entry): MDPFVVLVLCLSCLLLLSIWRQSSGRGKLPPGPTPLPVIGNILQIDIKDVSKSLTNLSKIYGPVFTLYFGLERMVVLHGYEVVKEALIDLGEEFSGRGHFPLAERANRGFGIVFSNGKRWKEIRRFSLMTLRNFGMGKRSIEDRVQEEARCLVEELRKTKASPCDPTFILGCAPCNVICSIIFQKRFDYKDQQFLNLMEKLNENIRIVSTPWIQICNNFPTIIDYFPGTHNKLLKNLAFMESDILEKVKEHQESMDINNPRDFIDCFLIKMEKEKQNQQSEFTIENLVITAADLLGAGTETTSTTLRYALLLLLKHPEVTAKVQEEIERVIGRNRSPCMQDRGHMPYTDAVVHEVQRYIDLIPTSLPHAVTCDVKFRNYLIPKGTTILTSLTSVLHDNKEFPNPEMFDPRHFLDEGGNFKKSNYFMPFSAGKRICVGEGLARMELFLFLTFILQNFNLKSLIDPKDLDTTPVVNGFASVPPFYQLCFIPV

[5] = molecular target: T2, Cytochrome P450 1A2 (Homo sapiens, UniProt P05177)
T2 sequence (P05177 whole entry): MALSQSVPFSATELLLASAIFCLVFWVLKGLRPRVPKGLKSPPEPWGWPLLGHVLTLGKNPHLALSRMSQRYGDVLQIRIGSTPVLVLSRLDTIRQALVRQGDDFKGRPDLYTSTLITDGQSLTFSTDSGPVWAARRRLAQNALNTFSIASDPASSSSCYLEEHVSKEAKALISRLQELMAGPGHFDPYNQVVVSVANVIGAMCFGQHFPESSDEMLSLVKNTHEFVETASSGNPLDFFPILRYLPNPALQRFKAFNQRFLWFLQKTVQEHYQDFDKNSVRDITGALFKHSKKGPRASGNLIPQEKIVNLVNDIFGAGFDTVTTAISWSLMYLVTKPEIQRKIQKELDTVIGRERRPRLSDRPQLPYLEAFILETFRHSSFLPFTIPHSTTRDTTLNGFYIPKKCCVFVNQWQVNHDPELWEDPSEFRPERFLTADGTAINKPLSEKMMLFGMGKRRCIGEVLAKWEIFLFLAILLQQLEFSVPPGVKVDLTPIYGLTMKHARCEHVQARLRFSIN

[6] = molecular target: Cytochrome P450 3A4 (Homo sapiens, UniProt P08684)
Sequence of Cytochrome P450 3A4 (P08684 whole entry): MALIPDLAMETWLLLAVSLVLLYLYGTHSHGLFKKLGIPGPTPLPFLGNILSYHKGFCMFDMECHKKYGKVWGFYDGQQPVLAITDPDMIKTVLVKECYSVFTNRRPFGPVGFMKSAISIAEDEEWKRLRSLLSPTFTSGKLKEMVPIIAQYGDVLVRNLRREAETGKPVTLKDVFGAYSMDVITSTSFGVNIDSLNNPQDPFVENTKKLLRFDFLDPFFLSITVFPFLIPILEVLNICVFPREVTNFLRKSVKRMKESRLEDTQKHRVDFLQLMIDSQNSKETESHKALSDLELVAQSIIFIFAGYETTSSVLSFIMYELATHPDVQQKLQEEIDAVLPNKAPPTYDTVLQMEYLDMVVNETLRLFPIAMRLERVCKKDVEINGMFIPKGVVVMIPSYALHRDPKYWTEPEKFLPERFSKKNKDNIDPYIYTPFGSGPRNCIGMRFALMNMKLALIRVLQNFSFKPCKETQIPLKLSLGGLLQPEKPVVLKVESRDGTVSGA
Description: Inhibition of CYP3A4 in human liver microsomes using testosterone substrate by LC-MS/MS method

[7] = Metabolic stability in human liver microsomes at 1 uM after 30 mins by LC-MS/MS method; assay type: ADME; conditions: read-out: Stability
[8] = Tmax in human; assay type: ADME, organism-based; conditions: in vivo
[9] = molecular target: T1, Cytochrome P450 2J2; assay: Drug metabolism assessed as human recombinant CYP2J2-mediated intrinsic clearance assessed per pmol protein after 30 mins; assay type: ADME; conditions: recombinant enzyme, 0.5 h
[10] = substrate: COc1ccc(CCN2CCC(Nc3nc4ccccc4n3Cc3ccc(F)cc3)CC2)cc1; assay: Activity of human recombinant CYP2J2 assessed as compound O-demethylation; assay type: ADME

COc1ccc2c(c1)[C@]13CCCC[C@@H]1[C@H](C2)N(C)CC3 [DEXTROMETHORPHAN]
IC50 [1]: > 50 µM

CN[C@H]1CC[C@@H](c2ccc(Cl)c(Cl)c2)c2ccccc21 [SERTRALINE]
IC50 [2]: > 50 µM
IC50 [3]: 2.88 µM
IC50 [4]: 22.5 µM
IC50 [1]: 18.5 µM
IC50 [5]: 29.7 µM

C[C@@H]1C[C@H]2[C@@H]3CCC4=CC(=O)C=C[C@]4(C)[C@@]3(F)[C@@H](O)C[C@]2(C)[C@@]1(O)C(=O)CO [DEXAMETHASONE]
IC50 [1]: > 50 µM

CC(=O)Nc1ccc(O)cc1 [ACETAMINOPHEN]
IC50 [1]: > 50 µM

CC1(C)S[C@@H]2[C@H](NC(=O)[C@H](N)c3ccc(O)cc3)C(=O)N2[C@H]1C(=O)O [AMOXICILLIN]
IC50 [1]: > 50 µM

CN1C(C(=O)Nc2ccccn2)=C(O)c2ccccc2S1(=O)=O [PIROXICAM]
IC50 [1]: > 50 µM

COc1ccc(CCN(C)CCCC(C#N)(c2ccc(OC)c(OC)c2)C(C)C)cc1OC (stereo unspecified)
IC50 [5]: > 50 µM

COc1ccc2[nH]c([S+]([O-])Cc3ncc(C)c(OC)c3C)nc2c1 (stereo unspecified) [OMEPRAZOLE]
IC50 [1]: > 50 µM

CC[C@H]1OC(=O)[C@H](C)[C@@H](O[C@H]2C[C@@](C)(OC)[C@@H](O)[C@H](C)O2)[C@H](C)[C@@H](O[C@@H]2O[C@H](C)C[C@H](N(C)C)[C@H]2O)[C@](C)(O)C[C@@H](C)C(=O)[C@H](C)[C@@H](O)[C@]1(C)O [ERYTHROMYCIN]
IC50 [1]: > 50 µM

COCC(=O)O[C@]1(CCN(C)CCCc2nc3ccccc3[nH]2)CCc2cc(F)ccc2[C@@H]1C(C)C [MIBEFRADIL]
IC50 [2]: 28.4 µM
IC50 [3]: 0.84 µM
IC50 [4]: 1.32 µM
IC50 [1]: 2.14 µM
IC50 [5]: > 50 µM

CCc1oc2ccccc2c1C(=O)c1cc(Br)c(O)c(Br)c1 [BENZBROMARONE]
IC50 [3]: > 50 µM
IC50 [1]: 4.26 µM
IC50 [5]: 33.1 µM

COCCc1ccc(OCC(O)CNC(C)C)cc1 (stereo unspecified) [METOPROLOL]
IC50 [6]: > 50 µM
IC50 [5]: > 50 µM

CC(C)COCC(CN(Cc1ccccc1)c1ccccc1)N1CCCC1 (stereo unspecified) [BEPRIDIL]
IC50 [3]: > 50 µM
IC50 [1]: 11.5 µM
IC50 [5]: > 50 µM

CN(C)CCCN1c2ccccc2CCc2ccccc21 [IMIPRAMINE]
IC50 [1]: > 50 µM

Nc1ccc(S(=O)(=O)Nc2ccnn2-c2ccccc2)cc1 [SULFAPHENAZOLE]
IC50 [1]: > 50 µM

CCn1cc(C(=O)O)c(=O)c2cc(F)c(N3CCNCC3)cc21 [NORFLOXACIN]
IC50 [2]: > 50 µM
IC50 [5]: > 50 µM

CCN(CC)Cc1cc(Nc2ccnc3cc(Cl)ccc23)ccc1O [AMODIAQUINE]
IC50 [6]: > 50 µM

C[C@]12C=CC(=O)C=C1CC[C@@H]1[C@@H]2[C@@H](O)C[C@@]2(C)[C@H]1CC[C@]2(O)C(=O)CO [PREDNISOLONE]
IC50 [1]: > 50 µM

CCCc1nc2c(C)cc(-c3nc4ccccc4n3C)cc2n1Cc1ccc(-c2ccccc2C(=O)O)cc1
IC50 [2]: 4.78 µM
IC50 [3]: > 50 µM
IC50 [4]: > 50 µM
remaining at 0.5 h, 1 µM [7]: 97.7%
IC50 [5]: > 50 µM

C[C@]12C=CC(=O)C=C1CC[C@H]1[C@@H]3C[C@@H](O)[C@](O)(C(=O)CO)[C@@]3(C)C[C@H](O)[C@@]12F [TRIAMCINOLONE]
IC50 [2]: > 50 µM
IC50 [3]: > 50 µM
IC50 [1]: 9.47 µM
IC50 [5]: > 50 µM

Fc1ccc(C(c2ccc(F)cc2)N2CCN(C/C=C/c3ccccc3)CC2)cc1 [FLUNARIZINE]
Tmax [8]: 4 h
IC50 [2]: > 50 µM
IC50 [4]: > 50 µM
remaining at 0.5 h, 1 µM [7]: 83.8%
IC50 [5]: > 50 µM

Cc1cccc(Nc2ccccc2C(=O)O)c1C [MEFENAMIC ACID]
IC50 [1]: > 50 µM

COc1ccc(CCN2CCC(Nc3nc4ccccc4n3Cc3ccc(F)cc3)CC2)cc1 [ASTEMIZOLE]
CL [9]: 3.05 µL/min

NC(=O)N1c2ccccc2C=Cc2ccccc21 [CARBAMAZEPINE]
IC50 [1]: > 50 µM

C=CCc1ccccc1OCC(O)CNC(C)C (stereo unspecified) [ALPRENOLOL]
IC50 [1]: > 50 µM

CCCc1nc(C(C)(C)O)c(C(=O)O)n1Cc1ccc(-c2ccccc2-c2nnn[nH]2)cc1 [OLMESARTAN]
IC50 [1]: > 50 µM

CN1CCC[C@@H]1Cc1c[nH]c2ccc(CCS(=O)(=O)c3ccccc3)cc12
IC50 [1]: > 50 µM

CO/N=C(\C(=O)N[C@@H]1C(=O)N2C(C(=O)O)=C(CSc3nc(=O)c(=O)[nH]n3C)CS[C@H]12)c1csc(N)n1 [CEFTRIAXONE]
IC50 [1]: 27.4 µM

Cc1c(OCC(F)(F)F)ccnc1C[S+]([O-])c1nc2ccccc2[nH]1 (stereo unspecified) [LANSOPRAZOLE]
IC50 [1]: > 50 µM

B1: Cytochrome P450 2J2 (Homo sapiens) (protein)
chain: MLAAMGSLAAALWAVVHPRTLLLGTVAFLLAADFLKRRRPKNYPPGPWRLPFLGNFFLVDFEQSHLEVQLFVKKYGNLFSLELGDISAVLITGLPLIKEALIHMDQNFGNRPVTPMREHIFKKNGLIMSSGQAWKEQRRFTLTALRNFGLGKKSLEERIQEEAQHLTEAIKEENGQPFDPHFKINNAVSNIICSITFGERFEYQDSWFQQLLKLLDEVTYLEASKTCQLYNVFPWIMKFLPGPHQTLFSNWKKLKLFVSHMIDKHRKDWNPAETRDFIDAYLKEMSKHTGNPTSSFHEENLICSTLDLFFAGTETTSTTLRWALLYMALYPEIQEKVQAEIDRVIGQGQQPSTAARESMPYTNAVIHEVQRMGNIIPLNVPREVTVDTTLAGYHLPKGTMILTNLTALHRDPTEWATPDTFNPDHFLENGQFKKREAFMPFSIGKRACLGEQLARTELFIFFTSLMQKFTFRPPNNEKLSLKFRMGITISPVSHRLCAVPQV
Km [10]: 0.09 µM
Vmax [10]: 0.000339 µmol/min
